The source of these data is patent US20260216294A1, “BETA 2-ADRENERGIC RECEPTOR AGONISTS FOR TREATMENT OR PREVENTION OF MUSCLE WASTING” (ATROGI AB, priority 2023, published 2026).

Structures are written as SMILES.

The test system of assay [1] is L6-myotubes. Put plainly: Measurement of intracellular cAMP levels in differentiated L6-myotubes (Biological Example 3). The class given is cell-based. To be noted: for Emax at 10 µM: 0.25 h. The method, boiled down: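 Intracellular cAMP quantified by AlphaScreen after ethanol extraction and lysis of L6 myotubes. Cells were serum-starved overnight, then exposed for 15 min to compound (final 1×10^−5 M) or isoprenaline in IBMX-containing (1 mM) HBSS buffer, pH 7.4.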

Assay [2] concerns L6-myotubes. Put plainly: Glucose uptake in differentiated L6-myotubes (Biological Example 2). It counts as cell-based. The note with it: for Emax at 10 µM: read-out: Biological example 2 (GU). The method, boiled down:
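Uptake was quantified as radioactivity in 0.2 M NaOH lysates after a 10 min pulse of 50 nM ^3H-2-deoxyglucose. The pulse followed two agonist exposures at 1×10^−5 M final (isoprenaline or test compound): 1 h 40 min, then 20 min in glucose-free medium after washing. L6 myotubes had been starved overnight in medium with 0.5% fatty-acid-free BSA.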

The mark [3] stands for this setting: intracellular cAMP in differentiated L6-myotubes, compound at 10 μM, activity relative to isoproterenol at 10 μM.
[4] abbreviates: glucose uptake in differentiated L6-myotubes, compound at 10 μM, activity relative to isoproterenol at 10 μM.
[5] abbreviates: intracellular cAMP, compound at 10 μM relative to isoproterenol at 10 μM.
[6] abbreviates: glucose uptake, compound at 10 μM relative to isoproterenol at 10 μM.

With `CC(=O)N[C@H]1CC[C@@H](CC(C)(C)NC[C@@H](O)c2cccc(C#N)n2)CC1` [Compound 423], the Emax at 10 µM with L6-myotubes [1] (setting [3]) and in the assay with L6-myotubes [2] (setting [4]) was below 25% in each case.

As to `O[C@@H](CNC1(C(F)(F)F)CC1)c1cccc(F)c1` [Compound 118, (R)-1-(m-fluorophenyl)-2-[1-(trifluoromethyl)cyclopropylamino]-1-ethanol], the Emax at 10 µM was below 25% in the assay with L6-myotubes [1] (setting [5]) and 50 to 75% with L6-myotubes [2] (setting [6]).

`CCCS(=O)(=O)N[C@H]1CC[C@@H](CC(C)(C)NC[C@H](O)c2cncc(F)c2)CC1` [Compound 523, (R)-2-{1,1-dimethyl-2-[(1s,4S)-4-(propylsulfonylamino)cyclohexyl]ethylamino}-1-(5-fluoro-3-pyridyl)-1-ethanol]: the values for the Emax at 10 µM with L6-myotubes [1] (setting [3]) and in the assay on L6-myotubes [2] (setting [4]) were below 25% and 50 to 75%, respectively.

Consider `CCC[C@H]1CCC[C@@H]([C@@H](O)c2cccc(O)c2)N1` [Compound 121], for which the Emax at 10 µM in the assay with L6-myotubes [1] (setting [5]) is below 25%; in the assay with L6-myotubes [2] (setting [6]), above 75%.

Turning to `CC1(C)CCC([C@H](O)c2ccccc2F)N1` (stereo in doubt) [Compound 175, (R)-[(R)-5,5-dimethyl-2-pyrrolidinyl](o-fluorophenyl)methanol], the values for the Emax at 10 µM with L6-myotubes [1] (setting [5]) and with L6-myotubes [2] (setting [6]) were 25 to 50% and above 75%, respectively.

`CCCCNC[C@H](O)c1ccc(F)cc1O` [Compound 81, (R)-2-(butylamino)-1-(4-fluoro-2-hydroxyphenyl)-1-ethanol]: the figures for the Emax at 10 µM with L6-myotubes [1] (setting [5]) and in the assay on L6-myotubes [2] (setting [6]) were below 25% and 50 to 75%, respectively.

In the case of `CCCCCCNCC(O)c1ccc(O)cc1` (stereo not drawn) [Compound 17, 2-(hexylamino)-1-(p-hydroxyphenyl)-1-ethanol], the results for the Emax at 10 µM in the assay with L6-myotubes [1] (setting [5]) and in the assay with L6-myotubes [2] (setting [6]) were below 25% and 25 to 50%, respectively.

For the molecule `CC1(C)CC[C@@H]([C@H](O)c2cccc(O)c2)N1` [Compound 142, m-{(R)-[(S)-5,5-dimethyl-2-pyrrolidinyl] hydroxymethyl}phenol], the Emax at 10 µM in the assay on L6-myotubes [1] (setting [5]) is below 25%; in the assay on L6-myotubes [2] (setting [6]), 25 to 50%.

For `COc1ccc(CCC23CCC([C@H](O)c4cccc(F)c4)(CC2)N3)cc1` [Compound 540, (R)-(m-fluorophenyl){4-[2-(p-methoxyphenyl)ethyl]-7-azabicyclo[[2.2.1]]hept-1-yl}methanol], the Emax at 10 µM in the assay on L6-myotubes [1] (setting [3]) is 25 to 50%; in the assay on L6-myotubes [2] (setting [4]) it was 50 to 75%.

As to `COC(=O)[C@H]1CC[C@@H](C(C)(C)NC[C@H](O)c2cncc(F)c2)CC1` [Compound 321, (1S,4s)-8-[(R)-2-(5-fluoro-3-pyridyl)-2-hydroxyethylamino]-7-methoxy-p-menthan-7-one], the Emax at 10 µM was below 25% in the assay with L6-myotubes [1] (setting [3]) and 50 to 75% in the assay with L6-myotubes [2] (setting [4]).

Consider `C[C@H]1CC[C@@H]([C@H](O)c2cccc(O)c2)N1` (racemic) [Compound 40, Racemic mixture of m-{(R)-[(2S,5S)-5-methyl-2-pyrrolidinyl] hydroxymethyl} phenol and m-{(S)-[(2R,5R)-5-methyl-2-pyrrolidinyl] hydroxymethyl} phenol], for which the Emax at 10 µM in the assay on L6-myotubes [1] (setting [5]) was below 25%; in the assay on L6-myotubes [2] (setting [6]) it was 50 to 75%.

As for `CC(C)(NC[C@H](O)c1cncc(F)c1)[C@H]1CC[C@H](O)CC1` [Compound 285, (R)-1-(5-fluoro-3-pyridyl)-2-{1-methyl-1-[(1r,4R)-4-hydroxycyclohexyl]ethylamino}-1-ethanol], the Emax at 10 µM was below 25% in the assay with L6-myotubes [1] (setting [3]) and 50 to 75% with L6-myotubes [2] (setting [4]).

With `O[C@@H](c1cccc(F)c1)C12CCC(CCc3cccnc3)(CC1)N2` [Compound 445, (S)-(m-fluorophenyl){4-[2-(3-pyridyl)ethyl]-7-azabicyclo[[2.2.1]]hept-1-yl}methanol], the “Biological example 3 (CAMP)” value in the assay with L6-myotubes [1] (setting [3]) was “− (if it less than 25% it is denoted with −)”. The Emax at 10 µM in the assay on L6-myotubes [2] (setting [4]) is above 75%.

For the molecule `CNS(=O)(=O)[C@H]1CC[C@@H](CC(C)(C)NC[C@H](O)c2cccc(F)c2)CC1` [Compound 477, (R)-2-{1,1-dimethyl-2-[(1s,4S)-4-(methylaminosulfonyl)cyclohexyl]ethylamino}-1-(m-fluorophenyl)-1-ethanol], the Emax at 10 µM was below 25% in the assay on L6-myotubes [1] (setting [3]) and 50 to 75% in the assay with L6-myotubes [2] (setting [4]).

As for `CNS(=O)(=O)[C@H]1CC[C@H](CC(C)(C)NC[C@H](O)c2cccc(F)c2)CC1` [Compound 476], the figures for the Emax at 10 µM in the assay on L6-myotubes [1] (setting [3]) and in the assay with L6-myotubes [2] (setting [4]) were 25 to 50% and above 75%, respectively.

As to `O[C@H](c1cccc(F)c1)C12CCC(C/C=C/c3ccccc3)(CC1)N2` [Compound 534], the Emax at 10 µM in the assay on L6-myotubes [1] (setting [3]) was below 25%; in the assay with L6-myotubes [2] (setting [4]) it was above 75%.

With `CC(C)(CC[C@H]1CC[C@H](C(=O)O)CC1)NC[C@H](O)c1cncc(F)c1` [Compound 343, (1R,4r)-4-{3-[(R)-2-(5-fluoro-3-pyridyl)-2-hydroxyethylamino]-3-methylbutyl} cyclohexanecarboxylic acid], the results for the Emax at 10 µM with L6-myotubes [1] (setting [3]) and in the assay on L6-myotubes [2] (setting [4]) were below 25% and 25 to 50%, respectively.

In the assay with L6-myotubes [1] (setting [3]), `CC(=O)N(C)[C@H]1CC[C@@H](CC(C)(C)NC[C@H](O)c2cncc(F)c2)CC1` [Compound 507] showed an Emax at 10 µM below 25%. Besides, the “Biological example 2 (GU)” value in the assay with L6-myotubes [2] (setting [4]) was “++ (if it is between 75 and 50% it is denoted with ++)”.

For `CCC[C@H]1CC[C@@H]([C@@H](O)c2cccc(F)c2)N1` [Compound 131, (S)-[(2S,5S)-5-propyl-2-pyrrolidinyl](m-fluorophenyl)methanol], the Emax at 10 µM in the assay with L6-myotubes [1] (setting [5]) was below 25%; in the assay with L6-myotubes [2] (setting [6]), 50 to 75%.

On to `CC(=O)N[C@H]1CC[C@H](CC(C)(C)NC[C@H](O)c2cccnc2C)CC1` [Compound 434], for which the Emax at 10 µM is below 25% with L6-myotubes [1] (setting [3]) and above 75% in the assay on L6-myotubes [2] (setting [4]).

Take `CC12CCC([C@H](O)c3cccc(F)c3)(CC1)N2` [Compound 179, (R)-(m-fluorophenyl)(4-methyl-7-azabicyclo[[2.2.1]]hept-1-yl)methanol]: the Emax at 10 µM was below 25% in the assay on L6-myotubes [1] (setting [5]) and 50 to 75% in the assay on L6-myotubes [2] (setting [6]).

For the molecule `CS(=O)(=O)N[C@H]1CC[C@@H](C[C@@H]2CC[C@H]([C@H](O)c3cccc(F)c3)N2)CC1` [Compound 510, (R)-[(2R,5S)-5-{[(1s,4R)-4-(mesylamino)cyclohexyl]methyl}-2-pyrrolidinyl](m-fluorophenyl)methanol], the Emax at 10 µM in the assay with L6-myotubes [1] (setting [3]) is below 25%; with L6-myotubes [2] (setting [4]) it was above 75%.

In the assay with L6-myotubes [1] (setting [5]), `CCC[C@@H]1CC[C@H]([C@H](O)c2cncc(F)c2)N1` [Compound 160, (R)-[(2R,5R)-5-propyl-2-pyrrolidinyl](5-fluoro-3-pyridyl)methanol] displayed an Emax at 10 µM below 25%. Also, in the assay on L6-myotubes [2] (setting [6]), the “Biological example 2 (GU)” value is recorded as “+++ (If a compound at 10 μM shows activity of more than 75% of that of isoproterenol at 10 μM, the activity is denoted with +++)”.

Turning to `CCCCNCC(O)c1cc[nH]c(=O)c1` (stereo not drawn) [Compound 62, 4-[2-(butylamino)-1-hydroxyethyl]-2(1H)-pyridinone], the Emax at 10 µM was below 25% in the assay with L6-myotubes [1] (setting [5]) and 25 to 50% in the assay on L6-myotubes [2] (setting [6]).

On to `CC(C)(CC[C@H]1CC[C@H](O)CC1)NC[C@H](O)c1ccccc1F` [Compound 319, (R)-2-{1,1-dimethyl-3-[(1r,4S)-4-hydroxycyclohexyl]propylamino}-1-(o-fluorophenyl)-1-ethanol], for which the Emax at 10 µM in the assay with L6-myotubes [1] (setting [3]) is below 25%; in the assay with L6-myotubes [2] (setting [4]), above 75%.

`O[C@@H](c1cccc(F)c1)[C@H]1CC[C@H](Cc2ccc(Cl)cc2)N1` [Compound 394, (S)-{(2R,5R)-5-[(p-chlorophenyl)methyl]-2-pyrrolidinyl}(m-fluorophenyl)methanol]: the Emax at 10 µM is below 25% in the assay on L6-myotubes [1] (setting [3]) and 50 to 75% in the assay with L6-myotubes [2] (setting [4]).

Consider `CC(C)CS(=O)(=O)N[C@H]1CC[C@H](CC(C)(C)NC[C@H](O)c2cncc(F)c2)CC1` [Compound 526], for which the Emax at 10 µM is below 25% with L6-myotubes [1] (setting [3]) and 50 to 75% in the assay with L6-myotubes [2] (setting [4]).

As to `CO[C@H]1CC[C@H](CCCNC[C@H](O)c2cncc(F)c2)CC1` [Compound 261, (R)-1-(5-fluoro-3-pyridyl)-2-{3-[(1r,4S)-4-methoxycyclohexyl]propylamino}-1-ethanol], the Emax at 10 µM in the assay on L6-myotubes [1] (setting [3]) and in the assay with L6-myotubes [2] (setting [4]) was below 25% in each case.

Consider `CC1(C)CC[C@H]([C@H](O)c2cncc(F)c2)N1` [Compound 157, (R)-[(R)-5,5-dimethyl-2-pyrrolidinyl](5-fluoro-3-pyridyl)methanol], for which the results for the Emax at 10 µM in the assay with L6-myotubes [1] (setting [5]) and in the assay with L6-myotubes [2] (setting [6]) were below 25% and above 75%, respectively.

Take `CN(C)S(=O)(=O)[C@H]1CC[C@@H](CC(C)(C)NC[C@H](O)c2cccc(F)c2)CC1` [Compound 470]: the values for the Emax at 10 µM with L6-myotubes [1] (setting [3]) and in the assay on L6-myotubes [2] (setting [4]) were 25 to 50% and above 75%, respectively.

`COc1ccc(C[C@@H]2CC[C@H]([C@H](O)c3cccc(F)c3)N2)cc1` [Compound 373, (R)-{(2R,5S)-5-[(p-methoxyphenyl)methyl]-2-pyrrolidinyl}(m-fluorophenyl)methanol]: the Emax at 10 µM with L6-myotubes [1] (setting [3]) is 25 to 50%; with L6-myotubes [2] (setting [4]) it was above 75%.

`CCCCNC[C@H](O)c1cccc(F)c1F` [Compound 77, (R)-2-(butylamino)-1-(2,3-difluorophenyl)-1-ethanol]: the figures for the Emax at 10 µM in the assay with L6-myotubes [1] (setting [5]) and in the assay on L6-myotubes [2] (setting [6]) were below 25% and above 75%, respectively.

Take `O[C@@H](c1cccc(F)c1)C12CCC(CCCc3ccccc3)(CC1)N2` [Compound 535, (S)-(m-fluorophenyl){4-(3-phenylpropyl)-7-azabicyclo[[2.2.1]]hept-1-yl}methanol]: the Emax at 10 µM in the assay with L6-myotubes [1] (setting [3]) is below 25%; with L6-myotubes [2] (setting [4]) it was 25 to 50%.
